Measured values as given in ChEMBL document CHEMBL4507326, “Data for DCP probe TP-030-2” (2021).

How the values were obtained:
[1] = target: Bromodomain-containing protein 4 (Homo sapiens, UniProt O60885); assay: BRD4(BRD4LGRC) Takeda global kinase panel
[2] = target: Rhodopsin kinase GRK1 (Homo sapiens, UniProt Q15835); assay: RHODK [GRK1(GRK1LGA1)] Takeda global kinase panel
[3] = target: Myosin light chain kinase family member 4 (Homo sapiens, UniProt Q86YV6); assay: SgK085(SG85LGY1) Takeda global kinase panel
[4] = target: Serine/threonine-protein kinase/endoribonuclease IRE1 (Homo sapiens, UniProt O75460); assay: IRE1(ERN1PHY1) Takeda global kinase panel
[5] = target: Death-associated protein kinase 1 (Homo sapiens, UniProt P53355); assay: DAPK1(DAP1LGF1) Takeda global kinase panel
[6] = target: Phosphatidylinositol 4,5-bisphosphate 3-kinase catalytic subunit alpha isoform (Homo sapiens, UniProt P42336); assay: PI3KCA(PI3ACGR1) Takeda global kinase panel
[7] = target: Casein kinase II subunit alpha (Homo sapiens, UniProt P68400); assay: CK2alpha1(C2A1LGF1) Takeda global kinase panel
[8] = target: Dual specificity testis-specific protein kinase 2 (Homo sapiens, UniProt Q96S53); assay: TESK2(TES2LGRL) Takeda global kinase panel
[9] = target: Microtubule-associated serine/threonine-protein kinase 1 (Homo sapiens, UniProt Q9Y2H9); assay: MAST1(MAS1LGE5) Takeda global kinase panel
[10] = target: Non-receptor tyrosine-protein kinase TYK2 (Homo sapiens, UniProt P29597); assay: Tyk2(TYK2LGF1) Takeda global kinase panel
[11] = target: NUAK family SNF1-like kinase 1 (Homo sapiens, UniProt O60285); assay: NuaK1(NUA1LGF5) Takeda global kinase panel
[12] = target: Eukaryotic translation initiation factor 2-alpha kinase 1 (Homo sapiens, UniProt Q9BQI3); assay: HRI(EIK1CGQ1) Takeda global kinase panel
[13] = target: Interleukin-1 receptor-associated kinase 3 (Homo sapiens, UniProt Q9Y616); assay: IRAK3(IRK3PFE1) Takeda global kinase panel
[14] = target: Cyclin-dependent kinase 11A (Homo sapiens, UniProt Q9UQ88); assay: CDK11A(C11ALGS1) Takeda global kinase panel
[15] = target: 3-phosphoinositide-dependent protein kinase 1 (Homo sapiens, UniProt O15530); assay: PDK1(PDP1LGA1) Takeda global kinase panel
[16] = target: 5-hydroxytryptamine receptor 3A (Homo sapiens) (UniProt P46098); assay: Inhibition of Serotonin (5-Hydroxytryptamine) 5-HT3 at 10 µM in the Eurofins-Panlabs radioligand binding assay (Eurofins_assay_271910); set-up: ligand concentration 0.69 nM; settings: Compound concentration 10.0 uM
[17] = target: Rho-associated protein kinase 2 (Homo sapiens, UniProt O75116); assay: ROCK2(ROC2LGG1) Takeda global kinase panel
[18] = target: Vascular endothelial growth factor receptor 3 (Homo sapiens, UniProt P35916); assay: FLT4(FLT4LGY1) Takeda global kinase panel
[19] = target: Mitogen-activated protein kinase 10 (Homo sapiens, UniProt P53779); assay: JNK3(MP10LGF2) Takeda global kinase panel
[20] = target: Dual specificity mitogen-activated protein kinase kinase 1 (Homo sapiens, UniProt Q02750); assay: MEK1 [MAP2K1(M2K1LGF1)] Takeda global kinase panel
[21] = target: 5-hydroxytryptamine receptor 3A (Homo sapiens) (UniProt P46098); settings: Compound concentration 10.0 uM
[22] = target: Tyrosine-protein kinase CSK (Homo sapiens, UniProt P41240); assay: CSK(CSK1LGF1) Takeda global kinase panel
[23] = target: Beta-2 adrenergic receptor (Homo sapiens) (UniProt P07550); settings: Compound concentration 10.0 uM
[24] = target: Alpha-2C adrenergic receptor (Homo sapiens, UniProt P18825); assay: GPCRScan assay: inhibition of Alpha2C; set-up: radioligand conc. used [nm] 0.5 – 1.0, parental cells stable MDCK
[25] = target: Serine/threonine-protein kinase TAO3 (Homo sapiens, UniProt Q9H2K8); assay: TAO3(TAO3LGY1) Takeda global kinase panel
[26] = target: GABA-A receptor; anion channel (Rattus norvegicus) (UniProt O09028+P15431+P18506+P18508+P19969+P20236+P23574+P23576+P28471+P28473+P30191+P62813+P63079+P63138+Q91ZM7+Q9ES14); settings: Compound concentration 10.0 uM
[27] = target: Serine/threonine-protein kinase PLK4 (Homo sapiens, UniProt O00444); assay: PLK4(PLK4LGF1) Takeda global kinase panel
[28] = target: Histamine H1 receptor (Homo sapiens) (UniProt P35367); settings: Compound concentration 10.0 uM
[29] = target: Muscarinic acetylcholine receptor M1 (Homo sapiens) (UniProt P11229); settings: Compound concentration 10.0 uM
[30] = target: 5-hydroxytryptamine receptor 2B (Homo sapiens) (UniProt P41595); settings: Compound concentration 10.0 uM
[31] = target: G protein-coupled receptor kinase 4 (Homo sapiens, UniProt P32298); assay: GRK4(GRK4LGRI) Takeda global kinase panel
[32] = target: Tyrosine-protein kinase receptor UFO (Homo sapiens, UniProt P30530); assay: Axl(AXL1LGY1) Takeda global kinase panel
[33] = target: Cyclin-dependent kinase 6 (Homo sapiens, UniProt Q00534); assay: CDK6(CDK6CGS1) Takeda global kinase panel
[34] = target: Mitogen-activated protein kinase kinase kinase kinase 1 (Homo sapiens, UniProt Q92918); assay: HPK1(M4K1LGY1) Takeda global kinase panel
[35] = target: Uncharacterized serine/threonine-protein kinase SBK3 (Homo sapiens, UniProt P0C264); assay: SgK110(SG10LGF1) Takeda global kinase panel
[36] = target: Histamine H2 receptor (Homo sapiens) (UniProt P25021); settings: Compound concentration 10.0 uM
[37] = target: Mitogen-activated protein kinase kinase kinase kinase 5 (Homo sapiens, UniProt Q9Y4K4); assay: KHS1(M4K5LGY1) Takeda global kinase panel
[38] = target: Serine/threonine-protein kinase MARK2 (Homo sapiens, UniProt Q7KZI7); assay: MARK2(MAR2LGY1) Takeda global kinase panel
[39] = target: Mitogen-activated protein kinase kinase kinase 13 (Homo sapiens, UniProt O43283); assay: LZK(M313LGRJ) Takeda global kinase panel
[40] = target: Proto-oncogene tyrosine-protein kinase ROS (Homo sapiens, UniProt P08922); assay: Ros(ROS1PHY1) Takeda global kinase panel
[41] = target: Serine/threonine-protein kinase pim-2 (Homo sapiens, UniProt Q9P1W9); assay: Pim2(PIM2LHY1) Takeda global kinase panel
[42] = target: Alpha-2B adrenergic receptor (Homo sapiens) (UniProt P18089); settings: Compound concentration 10.0 uM
[43] = target: Protein kinase C iota type (Homo sapiens, UniProt P41743); assay: PKCiota(PRKILGRD) Takeda global kinase panel
[44] = target: D(2) dopamine receptor (Homo sapiens) (UniProt P14416); settings: Compound concentration 10.0 uM
D(2) dopamine receptor (Homo sapiens), sequence (P14416 whole entry): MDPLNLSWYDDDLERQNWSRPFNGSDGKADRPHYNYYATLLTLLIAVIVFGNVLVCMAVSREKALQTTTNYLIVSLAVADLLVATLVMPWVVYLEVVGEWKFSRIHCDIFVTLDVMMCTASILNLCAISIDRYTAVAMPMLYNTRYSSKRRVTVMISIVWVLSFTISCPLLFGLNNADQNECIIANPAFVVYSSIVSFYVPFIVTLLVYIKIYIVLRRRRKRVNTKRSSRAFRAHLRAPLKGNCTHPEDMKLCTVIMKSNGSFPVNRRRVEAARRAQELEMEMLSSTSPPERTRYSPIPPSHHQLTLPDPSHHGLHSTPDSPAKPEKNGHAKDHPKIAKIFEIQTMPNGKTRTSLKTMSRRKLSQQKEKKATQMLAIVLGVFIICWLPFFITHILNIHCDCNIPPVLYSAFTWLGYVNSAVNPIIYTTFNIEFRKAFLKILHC

Alpha-2C adrenergic receptor, sequence (P18825 whole entry): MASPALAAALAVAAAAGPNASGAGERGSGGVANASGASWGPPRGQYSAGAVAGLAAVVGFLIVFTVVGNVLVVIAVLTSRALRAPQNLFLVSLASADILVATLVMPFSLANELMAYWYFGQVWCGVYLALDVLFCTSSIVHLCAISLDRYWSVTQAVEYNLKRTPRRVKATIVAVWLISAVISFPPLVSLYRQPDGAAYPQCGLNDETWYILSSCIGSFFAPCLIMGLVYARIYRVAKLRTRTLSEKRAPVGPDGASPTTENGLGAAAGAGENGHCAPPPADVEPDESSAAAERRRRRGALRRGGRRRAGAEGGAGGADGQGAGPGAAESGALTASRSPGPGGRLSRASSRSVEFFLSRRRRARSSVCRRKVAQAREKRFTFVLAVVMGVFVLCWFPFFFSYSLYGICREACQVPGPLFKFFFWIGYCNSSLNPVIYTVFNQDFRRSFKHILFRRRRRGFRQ
5-hydroxytryptamine receptor 3A (Homo sapiens), sequence (P46098 whole entry): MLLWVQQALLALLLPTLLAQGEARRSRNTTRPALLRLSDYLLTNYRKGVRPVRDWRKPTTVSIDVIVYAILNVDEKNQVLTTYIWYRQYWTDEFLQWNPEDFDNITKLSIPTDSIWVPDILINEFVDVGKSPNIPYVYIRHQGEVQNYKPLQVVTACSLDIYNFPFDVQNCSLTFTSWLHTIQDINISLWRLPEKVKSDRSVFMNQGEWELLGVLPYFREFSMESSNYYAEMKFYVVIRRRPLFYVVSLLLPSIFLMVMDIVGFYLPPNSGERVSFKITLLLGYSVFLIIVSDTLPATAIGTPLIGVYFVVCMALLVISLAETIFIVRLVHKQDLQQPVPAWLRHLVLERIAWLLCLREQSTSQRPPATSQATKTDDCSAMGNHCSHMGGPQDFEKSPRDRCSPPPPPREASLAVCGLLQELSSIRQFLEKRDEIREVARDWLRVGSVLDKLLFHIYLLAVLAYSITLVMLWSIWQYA
Histamine H1 receptor (Homo sapiens), sequence (P35367 whole entry): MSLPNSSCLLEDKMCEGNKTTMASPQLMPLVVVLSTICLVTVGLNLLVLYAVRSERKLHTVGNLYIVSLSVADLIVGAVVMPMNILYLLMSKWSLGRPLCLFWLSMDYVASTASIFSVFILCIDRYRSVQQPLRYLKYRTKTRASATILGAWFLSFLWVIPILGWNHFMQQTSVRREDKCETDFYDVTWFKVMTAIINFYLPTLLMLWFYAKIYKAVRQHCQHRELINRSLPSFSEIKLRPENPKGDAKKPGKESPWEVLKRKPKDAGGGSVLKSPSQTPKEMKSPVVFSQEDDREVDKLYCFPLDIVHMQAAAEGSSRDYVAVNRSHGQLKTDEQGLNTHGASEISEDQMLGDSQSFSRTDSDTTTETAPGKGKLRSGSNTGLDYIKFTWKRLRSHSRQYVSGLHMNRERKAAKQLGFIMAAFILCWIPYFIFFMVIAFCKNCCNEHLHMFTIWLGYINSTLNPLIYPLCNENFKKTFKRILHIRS
Phosphatidylinositol 4,5-bisphosphate 3-kinase catalytic subunit alpha isoform, sequence (P42336 whole entry, canonical isoform): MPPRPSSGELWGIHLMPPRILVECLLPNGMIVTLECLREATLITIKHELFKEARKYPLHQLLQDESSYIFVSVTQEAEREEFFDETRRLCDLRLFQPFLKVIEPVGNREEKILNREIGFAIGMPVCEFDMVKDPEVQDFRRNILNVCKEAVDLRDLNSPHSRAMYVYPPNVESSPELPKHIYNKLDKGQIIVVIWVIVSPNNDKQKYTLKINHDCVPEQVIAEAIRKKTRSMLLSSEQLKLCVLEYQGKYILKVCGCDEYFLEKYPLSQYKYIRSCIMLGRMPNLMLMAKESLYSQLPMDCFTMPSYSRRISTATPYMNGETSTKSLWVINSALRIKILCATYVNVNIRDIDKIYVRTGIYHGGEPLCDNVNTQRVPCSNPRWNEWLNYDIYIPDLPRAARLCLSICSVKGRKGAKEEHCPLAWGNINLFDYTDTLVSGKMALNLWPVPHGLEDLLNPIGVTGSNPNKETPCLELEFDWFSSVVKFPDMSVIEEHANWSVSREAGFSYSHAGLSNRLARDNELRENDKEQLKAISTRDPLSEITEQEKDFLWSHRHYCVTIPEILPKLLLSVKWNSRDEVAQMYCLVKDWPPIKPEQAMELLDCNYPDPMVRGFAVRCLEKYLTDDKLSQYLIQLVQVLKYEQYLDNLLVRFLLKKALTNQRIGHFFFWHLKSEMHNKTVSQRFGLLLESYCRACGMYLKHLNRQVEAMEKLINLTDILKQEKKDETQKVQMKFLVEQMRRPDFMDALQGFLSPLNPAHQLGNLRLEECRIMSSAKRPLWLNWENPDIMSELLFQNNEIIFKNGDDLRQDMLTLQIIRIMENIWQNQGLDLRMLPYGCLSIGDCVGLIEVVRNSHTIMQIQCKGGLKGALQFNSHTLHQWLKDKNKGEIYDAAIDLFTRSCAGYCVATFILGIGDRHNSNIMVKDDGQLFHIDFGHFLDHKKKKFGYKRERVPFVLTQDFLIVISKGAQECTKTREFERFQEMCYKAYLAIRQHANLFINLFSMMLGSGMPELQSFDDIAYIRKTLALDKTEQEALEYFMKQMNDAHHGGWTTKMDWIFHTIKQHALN
Muscarinic acetylcholine receptor M1 (Homo sapiens), sequence (P11229 whole entry): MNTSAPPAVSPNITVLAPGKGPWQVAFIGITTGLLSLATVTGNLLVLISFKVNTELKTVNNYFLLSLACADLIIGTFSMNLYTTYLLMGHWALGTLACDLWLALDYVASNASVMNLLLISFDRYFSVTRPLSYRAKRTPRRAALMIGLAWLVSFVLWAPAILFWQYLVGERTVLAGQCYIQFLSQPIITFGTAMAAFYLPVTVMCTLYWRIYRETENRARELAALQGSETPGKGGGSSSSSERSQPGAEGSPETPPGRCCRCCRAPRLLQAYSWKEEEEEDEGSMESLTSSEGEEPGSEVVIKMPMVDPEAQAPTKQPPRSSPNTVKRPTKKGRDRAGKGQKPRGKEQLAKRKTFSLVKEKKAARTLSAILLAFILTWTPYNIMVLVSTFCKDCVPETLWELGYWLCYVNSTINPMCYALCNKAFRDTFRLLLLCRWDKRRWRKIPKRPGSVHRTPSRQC
Uncharacterized serine/threonine-protein kinase SBK3, sequence (P0C264 whole entry): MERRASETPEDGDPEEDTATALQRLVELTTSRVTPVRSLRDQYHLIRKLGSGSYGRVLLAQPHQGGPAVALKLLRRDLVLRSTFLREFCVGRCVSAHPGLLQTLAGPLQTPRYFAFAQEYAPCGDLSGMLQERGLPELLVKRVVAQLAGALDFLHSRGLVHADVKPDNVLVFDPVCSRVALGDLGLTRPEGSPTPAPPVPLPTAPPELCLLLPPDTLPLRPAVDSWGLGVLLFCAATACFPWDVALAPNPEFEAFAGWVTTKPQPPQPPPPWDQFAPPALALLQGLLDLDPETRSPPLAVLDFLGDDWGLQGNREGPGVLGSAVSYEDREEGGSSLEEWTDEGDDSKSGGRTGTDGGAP
Mitogen-activated protein kinase kinase kinase kinase 5, sequence (Q9Y4K4 whole entry): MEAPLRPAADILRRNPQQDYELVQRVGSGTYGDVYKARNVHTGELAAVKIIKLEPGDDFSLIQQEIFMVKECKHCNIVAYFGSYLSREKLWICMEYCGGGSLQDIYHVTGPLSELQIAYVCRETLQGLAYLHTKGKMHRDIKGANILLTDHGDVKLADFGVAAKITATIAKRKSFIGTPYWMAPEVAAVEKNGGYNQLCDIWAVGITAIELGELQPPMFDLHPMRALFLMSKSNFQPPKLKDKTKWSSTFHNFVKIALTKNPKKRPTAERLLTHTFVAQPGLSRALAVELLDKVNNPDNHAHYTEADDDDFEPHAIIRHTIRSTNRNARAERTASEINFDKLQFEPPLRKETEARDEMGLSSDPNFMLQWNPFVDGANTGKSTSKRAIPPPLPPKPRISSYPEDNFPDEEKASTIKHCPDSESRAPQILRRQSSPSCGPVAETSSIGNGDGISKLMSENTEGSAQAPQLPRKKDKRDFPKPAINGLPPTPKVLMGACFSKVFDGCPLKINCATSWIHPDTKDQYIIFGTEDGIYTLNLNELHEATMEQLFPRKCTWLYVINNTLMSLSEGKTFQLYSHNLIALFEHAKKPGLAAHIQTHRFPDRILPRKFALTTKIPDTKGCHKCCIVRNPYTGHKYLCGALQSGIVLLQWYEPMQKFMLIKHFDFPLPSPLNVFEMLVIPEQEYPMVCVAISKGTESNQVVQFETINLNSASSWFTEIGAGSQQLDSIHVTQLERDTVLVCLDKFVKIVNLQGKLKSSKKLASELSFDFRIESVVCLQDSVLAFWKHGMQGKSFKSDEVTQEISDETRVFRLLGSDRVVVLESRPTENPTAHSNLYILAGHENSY
Cyclin-dependent kinase 6, sequence (Q00534 whole entry): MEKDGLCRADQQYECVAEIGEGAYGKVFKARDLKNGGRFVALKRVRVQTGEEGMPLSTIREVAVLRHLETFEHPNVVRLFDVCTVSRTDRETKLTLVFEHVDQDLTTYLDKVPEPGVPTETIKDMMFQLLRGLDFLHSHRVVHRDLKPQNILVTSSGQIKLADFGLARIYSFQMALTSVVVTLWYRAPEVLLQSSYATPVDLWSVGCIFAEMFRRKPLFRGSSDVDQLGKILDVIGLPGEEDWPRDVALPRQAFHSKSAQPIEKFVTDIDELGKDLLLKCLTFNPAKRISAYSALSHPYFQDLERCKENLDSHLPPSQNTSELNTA

CN1C(=O)[C@@H](N2CCc3c(nn(Cc4ccccc4)c3Br)C2=O)COc2ccccc21 [TP-030-2]
2950 nM: Ki ([24]; read-out: Ki)
inactive: inhibition [16] 4% | inhibition [21] 37.7% | inhibition [23] 11.2% | inhibition [26] 24% | inhibition [28] 9% | inhibition [29] 21.6% | inhibition [36] -8% | inhibition [44] -5.95%
2820 nM: Ki ([24]; read-out: pKi (converted))
active: inhibition [30] 63% | inhibition [42] 59.6%
1000 nM: IC50 [1] | IC50 [2] | IC50 [3] | IC50 [4] | IC50 [5] | IC50 [6] | IC50 [7] | IC50 [8] | IC50 [9] | IC50 [10] | IC50 [11] | IC50 [12] | IC50 [13] | IC50 [14] | IC50 [15] | IC50 [17] | IC50 [18] | IC50 [19] | IC50 [20] | IC50 [22] | IC50 [25] | IC50 [27] | IC50 [31] | IC50 [32] | IC50 [33] | IC50 [34] | IC50 [35] | IC50 [37] | IC50 [38] | IC50 [39] | IC50 [40] | IC50 [41] | IC50 [43]
